In brackets after ≈: the same amount, converted by molar mass. Read-outs that look alike come from different tables or passages of the source.
Test system: P. aeruginosa
Assay: MIC, broth microdilution, CDC/FDA Antibiotic Resistance Isolate Bank (Example 7, Tables 10, 15)
Assay type: cell-based
Settings: for MIC: Pseudomonas aeruginosa, read-out: MIC
[1] = 26 metallo-carbapenemase-producing P. aeruginosa strains, β-lactamase inhibitor µg/mL in parentheses
[2] = 96 strains of P. aeruginosa, β-lactamase inhibitor µg/mL in parentheses

Question: How did the “MIC against 26 metallo-carbapenemase-producing strains MIC50” value [1] turn out when `O=C(O)c1cn(C2CC2)c2cc(N3CCNCC3)c(F)cc2c1=O` [Ciprofloxacin, ciprofloxacin] was run?
Answer: The value was 32 µg(mL).

Question: What about the “MIC against 26 metallo-carbapenemase-producing strains MIC90” value [1] of the same molecule?
Answer: The value was 64 µg(mL).

Question: What about the “MIC against 96 strains of P. aeruginosa MIC50” value [2] of the same molecule?
Answer: Its value is 16 µg(mL).

Question: What about the “MIC against 96 strains of P. aeruginosa MIC90” value [2] of the same molecule?
Answer: Its value is 64 µg(mL).

Question: And the MIC (P. aeruginosa KUB No. 5602, AR Bank # 105)?
Answer: The MIC was > 64 µg/mL.

Question: And the MIC (P. aeruginosa KUB No. 5665, AR Bank # 232)?
Answer: Its MIC is 2 µg/mL (≈ 6.04 µM).

Question: And the MIC (P. aeruginosa KUB No. 5666, AR Bank # 23)?
Answer: Its MIC is 0.5 µg/mL (≈ 1.51 µM).

Question: And the MIC (P. aeruginosa KUB No. 5667, AR Bank # 234)?
Answer: The MIC was 2 µg/mL (≈ 6.04 µM).

Question: What about the MIC (P. aeruginosa KUB No. 5669, AR Bank # 236) of the same molecule?
Answer: Its MIC is 4 µg/mL (≈ 12.1 µM).

Question: And the MIC (P. aeruginosa KUB No. 5675, AR Bank # 242)?
Answer: Its MIC is 8 µg/mL (≈ 24.1 µM).

Question: What about the MIC (P. aeruginosa KUB No. 5676, AR Bank # 243) of the same molecule?
Answer: Its MIC is 8 µg/mL (≈ 24.1 µM).

Question: What about the MIC (P. aeruginosa KUB No. 5705, AR Bank # 272) of the same molecule?
Answer: The MIC was 8 µg/mL (≈ 24.1 µM).

Question: What about the MIC (P. aeruginosa KUB No. 5747, AR Bank # 351) of the same molecule?
Answer: Its MIC is 2 µg/mL (≈ 6.04 µM).

Question: And the MIC (P. aeruginosa KUB No. 5748, AR Bank # 352)?
Answer: Its MIC is 4 µg/mL (≈ 12.1 µM).

Question: And the MIC (P. aeruginosa KUB No. 5750, AR Bank # 354)?
Answer: Its MIC is 4 µg/mL (≈ 12.1 µM).

Question: What about the MIC (P. aeruginosa KUB No. 5754, AR Bank # 358) of the same molecule?
Answer: The MIC was 4 µg/mL (≈ 12.1 µM).

Question: What about the MIC (P. aeruginosa KUB No. 5755, AR Bank # 359) of the same molecule?
Answer: The MIC was 4 µg/mL (≈ 12.1 µM).

Question: And the MIC (P. aeruginosa KUB No. 5798, AR Bank # 455)?
Answer: The MIC was 1 µg/mL (≈ 3.02 µM).

Question: And the MIC (P. aeruginosa KUB No. 5801, AR Bank # 458)?
Answer: The MIC was 0.5 µg/mL (≈ 1.51 µM).

Question: What about the MIC (P. aeruginosa KUB No. 5802, AR Bank # 459) of the same molecule?
Answer: Its MIC is 4 µg/mL (≈ 12.1 µM).

Question: What about the MIC (P. aeruginosa KUB No. 5804, AR Bank # 862) of the same molecule?
Answer: Its MIC is 1 µg/mL (≈ 3.02 µM).

Question: What about the MIC (P. aeruginosa KUB No. 5806, AR Bank # 864) of the same molecule?
Answer: The MIC was > 64 µg/mL.

Question: And the MIC (P. aeruginosa KUB No. 5813, AR Bank # 508)?
Answer: Its MIC is 0.002 µg/mL (≈ 0.00604 µM).

Question: What about the MIC (P. aeruginosa KUB No. 5815, AR Bank # 510) of the same molecule?
Answer: The MIC was 0.004 µg/mL (≈ 0.0121 µM).

Question: What about the MIC (P. aeruginosa KUB No. 5817, AR Bank # 512) of the same molecule?
Answer: The MIC was 0.001 µg/mL (≈ 0.00302 µM).

Question: What about the MIC (P. aeruginosa KUB No. 5820, AR Bank # 515) of the same molecule?
Answer: Its MIC is > 0.064 µg/mL.

Reference: patent EP4635500A1, “THERAPEUTIC AGENT FOR BACTERIAL INFECTION” (Sumitomo Pharma Co., Ltd., priority 2022, dated 2024)
